Series [1] has as its system HSV-2. As to the kind of experiment: HSV-2 viral DNA replication (quantitative PCR, GE) versus infectious virus (PFU) in Vero cells. It is filed as cell-based, herpes simplex virus 2. Conditions: for Fold suppression GE / Fold suppression PFU: 24 h, relative to DMSO. As for the experimental part:
Quantitative PCR measurement of viral genome levels. Infected cell cultures were collected and virus and cells were pelleted by centrifugation for 30 min at 12,000 rpm. Total DNA was isolated from the pellets using a QIAamp DNA Mini Kit (Qiagen) according to the manufacturer's instructions. DNA concentration of each preparation was measured using a Nanodrop 2000 spectrophotometer. The primers and probe for real-time PCR were designed to amplify a 108 bp segment in the HSV-2 LAT region. […] PCR reactions were set up in 25 μL containing FastStart Universal Probe master mix containing Rox (Roche), 900 nM forward and reverse primers, 250 nM probe, and 5 μL template DNA preparation (˜30-100 ng total DNA). Quantification was performed in triplicate for each DNA preparation using an ABI model 7500 genetic analyzer (Applied Biosystems) with the following cycling parameters: 1 cycle at 50° C. for 2 min, 1 cycle at 95° C. for 10 min, 40 cycles at 95° C. for 15 s, and 60° C. for 1 min. For absolute quantification, 10^3 to 10^8 copies of plasmid pcDNA3.1(+)5′Flag-ICP0 was used to generate a standard curve. Data were analyzed using Sequence Detection System software (ABI), and HSV-2 genome equivalents number per nanogram of total DNA was calculated and used for comparison.
Viral replication was measured 24 hours post-infection by plaque assay, and DNA replication was measured using quantitative PCR against the LAT gene and expressed as genome-equivalents (GE). […] Two inhibitor concentrations were assessed for compounds #30 (60 and 20 μM) and #46 (20 and 10 μM).

The subject of series [2] is HFFs. The series is described as follows: Neutral red cytotoxicity assay in HFFs (10 day, with plaque reduction assay). The settings on record: 10 day assay. It is filed as cell-based, human. The procedure: HCMV plaque reduction EC50 and toxicity assays. Low passage primary HFFs were infected with HCMV strain AD169 in the presence of serial dilutions of the compounds from 0.032 to 100 μM. Ten days later the monolayers were stained with 1% neutral red solution in PBS. After rinsing, plaques were counted using a stereomicroscope and the EC50 was interpolated from the data. Cytotoxicity was measured using a plate-based assay in which compounds were added to HFFs at 0.032 to 100 μM. At the end of the incubation period, plates were stained for 1 h with a neutral red solution in PBS. The stain was then removed, the plates rinsed in PBS and dried, and dye internalized by viable cells was determined at OD550. CC50 values were interpolated from the data.
Compounds #41, 46, 49, 55, 56, and 59 and the FDA-approved, anti-HCMV drug ganciclovir were subsequently evaluated with plaque reduction and toxicity assays in HFFs. HFFs were infected with HCMV in the presence of serial dilutions of the compounds. After 10 days the cultures were stained with neutral red and plaques were counted. Compound cytotoxicity for uninfected cells was determined in the same manner except that neutral red uptake by viable cells was measured by optical density. […] The TI values for the five NTS inhibitors of HCMV ranged from 5 for compound #46 to 17 for #55 and 59. Therefore, NTS inhibitors can suppress HCMV replication in addition to inhibiting the HSVs.
In general terms: Plaques are areas of infected cells; plaque reduction assays count them against a control.

Series [3] has as its system HFFs. The series is described as follows: Neutral red cytotoxicity assay in uninfected HFFs (14 day, with CPE assay). Conditions: 14 days. Format: cell-based, human. The procedure:
(§1) Anti-HCMV CPE inhibition and cytotoxicity assays. HFFs were infected with HCMV strain AD169 in the presence of serial dilutions of the compounds from 0.0192 to 60 μM. Fourteen days later the monolayers were stained with crystal violet, and retained cell density was quantified using a multiplate autoreader (BioTek). Cytotoxicity was measured the same way, except that the cells were uninfected and neutral red internalization by viable cells was measured.
(§2) Antiviral efficacy against HCMV. The ability of select HSV inhibitors to inhibit replication of another major human herpesvirus pathogen, human cytomegalovirus (HCMV) (65) was tested. This was based on the inhibitors strong suppression of HSV-1 and HSV-2 and the prediction that other members of the herpesvirus family would be sensitive to NTS inhibitors due to their shared DNA replication mechanism. Compounds #41, 46, 49, 55, 56, and 59 and the FDA-approved anti-HCMV drug ganciclovir were evaluated with crystal violet CPE and neutral red toxicity assays in HFFs. HFFs were infected with HCMV in the presence of serial dilutions of the compounds that were most inhibitory for HSVs. After 14 days the monolayers were stained and cell density was determined by OD reading. Compound cytotoxicity for uninfected cells was determined in the same manner except that neutral red uptake by viable cells was measured. […] The TI values for the four NTS inhibitors of HCMV ranged from 4 for compound #41 to 38 for #56. Therefore, NTS inhibitors can suppress HCMV replication in addition to inhibiting the HSVs.

Series [4] deals with HCMV strain AD169. The series is described as follows: Anti-HCMV CPE inhibition assay (crystal violet) in HFFs. It is filed as cell-based, human cytomegalovirus. Conditions: 14 days; for EC50: read-out: EC50 against HCMV, CPE inhibition assay. As for the experimental part: as §1, §2
Series [5] is described as follows: in vitro. Conditions: human. The procedure, abridged: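 Primary HFF, 1.0×10^4/well, exposed 24 h to 0.78–100 μM compound in 1% DMSO. Viability read by MTT (0.25 mg/mL, 60 min, 570 nm) and by protease-release lysis luminescence. CC50 by non-linear fit of percent viability.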
Series [6] is described as follows: MTT mitochondrial toxicity assay in Vero cells. Conditions: African green monkey, Vero cells, read-out: Vero cell toxicity MTT CC50. Format: cell-based.
A short description of series [7]: CytoTox-Glo cellular lysis assay in Vero cells. Format: cell-based. The settings on record: African green monkey, Vero cells, read-out: Vero cell toxicity CTG CC50. As for the experimental part:
Quantitative toxicity measurements were conducted for all compounds that suppressed HSV replication by approximately 2 login or more at 5 μM plus a number of compounds with lesser inhibitory activity for comparison. Toxicity was assessed by measuring release of intracellular proteases into the culture medium due to cellular lysis. […] Consistent with the subjective assessments of toxicity, all compounds selected for quantitative toxicity assessment had CC50 values ≥50 μM by both the MTT and cellular lysis assays (Table 1).

Series [8] concerns HSV-1 strain KOS. As to the kind of experiment: Resistance evolution by passage of HSV-1 KOS in presence of inhibitor. It is filed as cell-based, herpes simplex virus 1. Conditions: compared with unselected KOS. The procedure:
Cultures were scraped and collected when virus-induced cytopathic effect was evident (24-72 h). […] This process was repeated three times, maintaining the independent lineages. […] Inhibition was determined by subtracting a lineage's titer in the presence of inhibitor from its titer in the presence of diluent control.

Read-outs that look alike come from different tables or passages of the source.

For the molecule `CCOc1ccc(-c2c3cc(O)c(=O)cc-3oc3cc(O)c(O)cc23)cc1` [Compound 30], in series [1] (20 μM), the “Fold suppression PFU/GE” value is 4.5, the “Fold suppression GE” value is reported as 150 fold and the “Fold suppression PFU” value was 676 fold. For the same molecule, in series [1] (60 μM), the “Fold suppression PFU/GE” value was found to be 143.7, the “Fold suppression GE” value worked out at 247 fold and the “Fold suppression PFU” value stood at 35500 fold.

In general, EC50 refers to the concentration at which the effect is half-maximal. The molecule `C=C(C)C1CCc2c(c(C)cc(O)c(=O)c2O)C1` (stereo not drawn) [Compound 56, Manicol] yielded a CC50 in series [2] of 6.7 µM. For the same molecule, in series [3], the CC50 is 38.4 µM and the “CC50, neutral red” value is on record as “measurable toxicity”. For the same molecule, in series [4], the “EC50 against HCMV, CPE inhibition assay” value was “very low μM range” and the EC50 was determined as 38.4 µM. Besides, in series [1] (20 μM), the “Fold suppression PFU/GE” value turned out to be 314.3, the “Fold suppression GE” value is 420 fold and the “Fold suppression PFU” value was 132000 fold.

As for `Nc1nc2c(ncn2COCCO)c(=O)[nH]1` [ACV, Acyclovir, reference compound], the CC50 at 24 h in series [5], in series [6] and in series [7] was over 100 µM each time.

For `CC(C)c1ccc(O)c(=O)c(O)c1` [Compound 46, Beta-thujaplicinol], the CC50 in series [2] stood at 6.7 µM. This molecule also had a CC50 in series [3] of over 60 µM. Moreover, in series [4], the “EC50 against HCMV, CPE inhibition assay” value is given as “very low μM range” and the EC50 amounted to 1.4 µM. Also, in series [1] (10 μM), the “Fold suppression PFU/GE” value is given as 541.6, the “Fold suppression GE” value is listed as 470 fold and the “Fold suppression PFU” value came to 254536 fold. In series [1] (20 μM), the “Fold suppression PFU/GE” value stood at 538.2, the “Fold suppression GE” value is recorded as 615 fold and the “Fold suppression PFU” value turned out to be 331000 fold. For the same molecule, the “Sensitivity of inhibitor-selected lineages after 3 rounds of growth (in words)” value in series [8] is “remained as sensitive”.

Regarding `Cc1cc(C2CCCCC2)n(O)c(=O)c1` [Compound 41, Ciclopirox, reference compound], the figures for the CC50 at 24 h in series [5], in series [6] and in series [7] were over 100 µM, over 50 µM and over 100 µM, respectively. Besides, the “CC50, neutral red” value in series [3] was “measurable toxicity”. Besides, the “EC50 against HCMV, CPE inhibition assay” value in series [4] is recorded as “very low μM range”. In addition, in series [4] (Human betaherpesvirus 5, AD169, 336 h), the EC50 came to 2.1 µM. Besides, in series [1] (10 μM), the “Fold suppression PFU/GE” value is 62.0. Also, in series [1] (10 μM), the “Fold suppression GE” value stood at 551 fold. The “Fold suppression PFU” value in series [1] (10 μM) came out at 34159 fold. Moreover, the “Sensitivity of inhibitor-selected lineages after 3 rounds of growth (in words)” value in series [8] was “remained as sensitive”.

Turning to `CC(C)=CCc1ccc(O)c(=O)cc1C(C)C` [Compound 49, Nootkatin], the CC50 in series [2] came out at 6.7 µM. This molecule yielded a CC50 in series [3] of over 60 µM. Also, in series [4], the “EC50 against HCMV, CPE inhibition assay” value was “very low μM range” and the EC50 worked out at 1.7 µM.

For the molecule `CC(=O)NC(CCc1ccc(Cl)c(Cl)c1)c1cccc(O)c(=O)c1` (stereo not drawn) [Compound 55], the CC50 in series [2] was 8 µM; in series [3] it was over 60 µM. Further, the EC50 in series [4] is over 60 µM.
